Series [1] is described as follows: pharmacokinetics in plasma and brain after intraperitoneal injection. The class given is in vivo. The settings on record: mouse, 25 mg/kg intraperitoneal, female C57BL/7 mice, read-out: total drug exposure (area under the curve) in brain relative to plasma.
The next series concerns the target T1, EP2 receptors (Homo sapiens, UniProt P43116).
T1 construct: host or cells: neurons in vitro
Conditions: in vitro; cited from earlier work.

For the next series, the target named is T2, recombinant 15-PGDH (Homo sapiens, UniProt P15428).
T2 sequence (P15428 1-266): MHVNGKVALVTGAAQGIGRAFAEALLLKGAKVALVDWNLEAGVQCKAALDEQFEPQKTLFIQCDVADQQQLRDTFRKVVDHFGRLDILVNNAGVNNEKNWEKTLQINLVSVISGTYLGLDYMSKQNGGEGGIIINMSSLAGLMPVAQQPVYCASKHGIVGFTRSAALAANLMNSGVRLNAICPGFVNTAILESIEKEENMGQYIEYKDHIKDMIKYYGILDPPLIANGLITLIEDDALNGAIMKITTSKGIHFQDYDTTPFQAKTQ
In words: inhibition of recombinant 15-PGDH. The class given is biochemical.

For series [2], the system named is PGE2 production by cell lines. In words: PGE2 production by cell lines. It is filed as cell-based.
Series [3] is described as follows: chemical stability in aqueous solutions. Conditions: over broad pH range. The class given is physicochemical.
Series [4] in a line: stability on incubation with mouse liver extracts. It is filed as in vitro ADME.
Series [5] is described as follows: stability on incubation with rat liver extracts. The class given is in vitro ADME.
Series [6] can be described thus: stability on incubation with human liver extracts. The class given is in vitro ADME.
Series [7] is described as follows: toxicity after IP injection into mice.
Series [8] has as its system prostaglandin E2 (PGE2) in brain. In words: PGE2 in 3 regions of the mouse brain after intraperitoneal injection. Conditions: 2.5 mg/kg IP, 3 hours after injection; cerebrum, cerebellum, medulla/pons; 3 mice. It is filed as in vivo. An excerpt:
Brain regions sampled are #1, the cerebrum, #2, the cerebellum, and #3, medulla/pons. Basal PGE2 is highest in the cerebrum and medulla/pons, and lowest in the cerebellum.

The test system of series [9] is mice subjected to blast injury (traumatic brain injury). In words: learning, memory and beam walking after traumatic brain injury (blast injury). It is filed as in vivo. Conditions: blast-injured mice. The method, then:
In this study, mice were on day 0 subjected to traumatic brain injury from exposure to an adjacent blast injury in an overpressure chamber. 24 hours later, on study day 1, mice treatment with (+) SW033291 at 10 mg/kg was initiated by daily intraperitoneal injection. A parallel cohort of control mice were initiated on injection with vehicle only. On study day 7, mice commenced 4 days of daily training to learn the location of a cup on a table with 20 holes equally spaced around the perimeter, in the standard Barnes maze task. […] Cohorts that are compared are sham-injured mice, mice subjected to blast injury and treated with vehicle, mice subjected to blast injury and treated with the neuroprotective agent P7C3-A20, and mice subjected to blast injury and treated with (+) SW033291. Quicker time in finding the cup on day 4 is reflective of learning.
On study day 11, mice were returned to the Barnes maze with the escape cup removed, and memory was assessed by measuring the time mice spent within 5 cm of the cup's prior location.
On study day 12-14, mice were further trained to traverse a ½ inch cylindrical rod to reach and enter a black box. On day 14, the mice performance was videotaped and counts were made of the number of times a mouse foot slipped from the beam. […] In this assay, the worst performance is recorded for mice exposed to blast-injury receiving vehicle injections.

In another series the target is T3, 15-PGDH (Mus musculus, UniProt Q8VCC1).
T3 construct: from tissue; host or cells: mouse brain (cortex, cerebellum, pons and medulla)
T3 sequence (Q8VCC1 1-269): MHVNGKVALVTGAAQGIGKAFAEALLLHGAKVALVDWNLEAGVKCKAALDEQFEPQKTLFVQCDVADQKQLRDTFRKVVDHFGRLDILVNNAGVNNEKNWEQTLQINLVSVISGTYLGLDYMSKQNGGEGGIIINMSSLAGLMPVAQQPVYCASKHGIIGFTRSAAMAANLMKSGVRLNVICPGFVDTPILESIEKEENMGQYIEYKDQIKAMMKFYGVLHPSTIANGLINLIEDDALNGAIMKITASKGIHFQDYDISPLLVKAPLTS
In words: 15-PGDH activity in mouse brain regions after IP injection. The class given is in vivo. The settings on record: 2.5 mpk IP. As for the experimental part:
FIGS. 6(A-C) illustrate graphs showing 15-PGDH activity in the cortex (A), cerebellum (B), and pons and medulla (C) of mouse brain following IP injection of 15-PGDH inhibitor (+) SW033291 at 2.5 mpk. 15-PGDH activity was measured from the 3 regions of mouse brain using a 15-tritiated PGE2 substrate. A coupled enzymatic assay uses 15-PGDH and glutamate dehydrogenase to transfer tritium from PGE2 onto glutamate. Brain tissues were harvested for assay at the times shown following IP injection of 15-PGDH inhibitor (+)-SW033291 at 2.5 mpk.

The subject of series [10] is PGE2 levels in rat brain cortex. In words: PGE2 levels in rat brain cortex after IP injection. The class given is in vivo. The method, then: FIG. 7 illustrates a graph showing PGE2 levels in rat brain cortex following IP injection of (+) SW033291 at 2.5, 5.0, and 10.0 mg/kg. PGE2 levels are elevated in rat brain cortex 30, 120, and 180 minutes following a single IP injection of (+)-SW033291 at the noted doses.

Series [11] can be described thus: stability on incubation with hepatocyte extracts. It is filed as in vitro ADME.
Series [12] is described as follows: stability on incubation with hepatocyte cell lines. It is filed as in vitro ADME.
For series [13] the following is noted: cited from earlier work.

Read-outs that look alike come from different tables or passages of the source.

This is an account of results in US11478458B2, “Inhibitors of short-chain dehydrogenase activity for promoting neurogenesis and inhibiting nerve cell death” (CASE WESTERN RESERVE UNIVERSITY, priority 2016, dated 2022).

T1 sequence (P43116 whole entry): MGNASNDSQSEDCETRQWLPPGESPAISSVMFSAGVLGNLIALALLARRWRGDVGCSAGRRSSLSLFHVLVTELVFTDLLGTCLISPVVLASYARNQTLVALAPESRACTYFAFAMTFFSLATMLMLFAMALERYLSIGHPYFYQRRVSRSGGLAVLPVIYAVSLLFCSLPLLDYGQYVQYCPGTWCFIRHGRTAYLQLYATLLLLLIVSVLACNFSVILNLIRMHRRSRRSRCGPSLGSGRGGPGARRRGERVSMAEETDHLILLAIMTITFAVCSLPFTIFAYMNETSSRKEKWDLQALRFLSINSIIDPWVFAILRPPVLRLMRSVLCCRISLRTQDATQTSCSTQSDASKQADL

For the compound `CCCC[S+]([O-])c1sc2nc(-c3nccs3)cc(-c3cnc(C)n3C)c2c1N` (single isomer, unassigned; (+)) [(+) SW209415], the Kp in series [1] amounted to 1.56.
With `CCCC1([C@H](O)C/C=C/[C@H]2[C@H](O)CC(=O)[C@@H]2CCCCCCC(=O)OC)CCC1` [butaprost], on EP2 receptors, the “protection of neurons from amyloid β-peptide neurotoxicity” value is on record as “protected neurons”.
For `CCCC[S+]([O-])c1sc2nc(-c3nccs3)cc(-c3cnc(C)n3C)c2c1N` (centres unmarked) [formula (X)], the “concentration at which recombinant 15-PGDH is inhibited” value on recombinant 15-PGDH turned out to be 3 nM. Also, in series [2], the “concentration at which PGE2 production by cell lines is increased” value is reported as 20 nM. For the same compound, the “chemical stability in aqueous solutions” value in series [3] is “chemically stable”. In addition, the “chemical stability when incubated with mouse liver extracts” value in series [4] is “chemically stable”. For the same compound, the “chemical stability when incubated with rat liver extracts” value in [5] is reported as “chemically stable”. For the same compound, the “chemical stability when incubated with human liver extracts” value in [6] is reported as “chemically stable”. Further, the “immediate toxicity over 24 hours” value in series [7] (IP into mice at 50 mg/kg body weight) is recorded as “no immediate toxicity”.
Take `CCCC[S+]([O-])c1sc2nc(-c3cccs3)cc(-c3ccccc3)c2c1N` (single isomer, unassigned; (+)) [(+) SW033291]: the “brain PGE2 levels versus vehicle” value in [8] is “roughly double”. Further, in series [9] (daily IP treatment from 24 hours after injury, study days 7-10), the “Barnes maze learning (time to locate the cup, training days 1-4)” value is on record as “appear similar to control mice that received only sham injury”. In series [9] (study day 11), the “Barnes maze memory (time within 5 cm of the cup's prior location)” value was “behaved similarly to control mice that received only sham injury”. Also, the “foot slips from the beam” value in [9] (study day 14) is given as “intermediate performance”. Besides, the “15-PGDH enzyme activity in brain (cortex, cerebellum, pons and medulla)” value at 15-PGDH is “readily inhibited”. The “PGE2 levels in rat brain cortex” value in [10] (30, 120 and 180 minutes after single IP injection at 2.5, 5.0, 10.0 mg/kg) is “elevated”; in series [10] (120 minutes after dosing at 10 mpk IP) it was “double”; in [10] (180 minutes after dosing at 5 mpk IP), “double”.
As to `CCCC[S+]([O-])c1sc2nc(-c3cccs3)cc(-c3ccccc3)c2c1N` (centres unmarked) [formula (IX)], in [2], the “PGE2 production by cell lines” value was “increase PGE2 production”. Besides, the “chemical stability in aqueous solutions” value in series [3] is “chemically stable”. For the same compound, the “chemical stability when incubated with hepatocyte extracts” value in series [11] is “chemically stable”. Further, the “chemical stability when incubated with hepatocyte cell lines” value in series [12] is listed as “chemically stable”. Also, the “toxicity on repeated dosing” value in series [7] (IP into mice at 0.3 μmole/per mouse twice daily for 21 days) is given as “no toxicity”. Besides, the “immediate toxicity over 24 hours” value in series [7] (IP into mice at 0.6 μmole/per mouse) and in series [7] (IP into mice at 1.2 μmole/per mouse) was “no immediate toxicity” throughout.
For `CCCCC[C@H](O)/C=C/[C@H]1[C@H](O)CC(=O)[C@@H]1C/C=C\CCCC(=O)O` [PGE2, prostaglandin E2], the half-life result in series [13] (following intravenous injection) was “less than 1 min”; in series [13] (in the circulatory system), “approximately 30 sec”.
